# Data reported in PubChem BioAssay (NCI).
#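 A five-concentration, 48-hour dose response in 96-well plates underlies each endpoint, interpolated linearly between surrounding concentrations. GI50: concentration for 50% inhibition of growth. TGI: concentration producing complete growth inhibition.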
# How the values were obtained:
# Experiment in all cases: NCI tumour cell line growth inhibition, 48 h
# [1] = system: A498 renal
# [2] = system: CCRF-CEM leukemia
# [3] = system: DU-145 prostate
# [4] = system: HOP-92 NSCLC
# [5] = system: HS 578T breast
# [6] = system: K-562 leukemia
# [7] = system: RXF 393 renal
# [8] = system: SNB-75 CNS
# [9] = system: SR leukemia
# [10] = system: UO-31 renal
# [11] = system: 786-0 renal
# [12] = system: A549 NSCLC
# [13] = system: ACHN renal
# [14] = system: BT-549 breast
# [15] = system: CAKI-1 renal
# [16] = system: COLO 205 colon
# [17] = system: HCC-2998 colon
# [18] = system: HCT-116 colon
# [19] = system: HL-60(TB) leukemia
# [20] = system: HOP-62 NSCLC
# [21] = system: HT29 colon
# [22] = system: KM12 colon
# [23] = system: LOX IMVI melanoma
# [24] = system: M14 melanoma
# [25] = system: MDA-MB-231 breast
# [26] = system: MDA-MB-435
# [27] = system: MOLT-4 leukemia
# [28] = system: NCI-H460 lung
# [29] = system: NCI-H522 lung
# [30] = system: NCI/ADR-RES ovarian
# [31] = system: OVCAR-3 ovarian
# [32] = system: OVCAR-4 ovarian
# [33] = system: OVCAR-5 ovarian
# [34] = system: OVCAR-8 ovarian
# [35] = system: PC-3 prostate
# [36] = system: RPMI-8226 leukemia
# [37] = system: SF-268 CNS
# [38] = system: SF-295 CNS
# [39] = system: SF-539 CNS
# [40] = system: SK-MEL-2 melanoma
# [41] = system: SK-MEL-28 melanoma
# [42] = system: SK-OV-3 ovarian
# [43] = system: SN12C renal
# [44] = system: SNB-19 CNS
# [45] = system: SW-620 colon
# [46] = system: U251 CNS
# [47] = system: UACC-257 melanoma
# [48] = system: UACC-62 melanoma
smiles,measurement,setting,value
CCOC(=O)c1sc(-c2ccc(OS(=O)(=O)c3ccccc3[N+](=O)[O-])c(C=O)c2)nc1C,GI50,[1],0.532 µM
same,TGI,[1],7.57 µM
same,GI50,[2],1.83 µM
same,TGI,[2],4.49 µM
same,GI50,[3],3.24 µM
same,TGI,[3],> 100 µM
same,GI50,[4],1.92 µM
same,TGI,[4],5.5 µM
same,GI50,[5],2.99 µM
same,TGI,[5],> 100 µM
same,GI50,[6],1.61 µM
same,TGI,[6],> 100 µM
same,GI50,[7],1.62 µM
same,TGI,[7],5.77 µM
same,GI50,[8],1.37 µM
same,TGI,[8],8.44 µM
same,GI50,[9],1.96 µM
same,TGI,[9],> 100 µM
same,GI50,[10],2.36 µM
same,TGI,[10],> 100 µM
O=C(/C=C/c1ccccc1)C(Br)C(Br)c1ccccc1 (centres undefined),GI50,[11],1.91 µM
same,TGI,[11],4.31 µM
same,GI50,[1],1.9 µM
same,TGI,[1],5.68 µM
same,GI50,[12],2.79 µM
same,TGI,[12],9.3 µM
same,GI50,[13],1.25 µM
same,TGI,[13],2.57 µM
same,GI50,[14],1.86 µM
same,TGI,[14],3.39 µM
same,GI50,[15],1.24 µM
same,TGI,[15],2.6 µM
same,GI50,[2],0.308 µM
same,TGI,[2],1.2 µM
same,GI50,[16],1.54 µM
same,TGI,[16],3.14 µM
same,GI50,[3],1.64 µM
same,TGI,[3],3.24 µM
same,GI50,[17],1.9 µM
same,TGI,[17],3.63 µM
same,GI50,[18],0.2 µM
same,TGI,[18],0.43 µM
same,GI50,[19],1.34 µM
same,TGI,[19],3.58 µM
same,GI50,[20],4.06 µM
same,TGI,[20],14.9 µM
same,GI50,[5],2.36 µM
same,TGI,[5],7.7 µM
same,GI50,[21],1.04 µM
same,TGI,[21],2.48 µM
same,GI50,[6],0.303 µM
same,TGI,[6],1.25 µM
same,GI50,[22],2.07 µM
same,TGI,[22],4.38 µM
same,GI50,[23],1.52 µM
same,TGI,[23],2.91 µM
same,GI50,[24],2.02 µM
same,TGI,[24],4.9 µM
same,GI50,[25],1.73 µM
same,TGI,[25],3.51 µM
same,GI50,[26],1.49 µM
same,TGI,[26],3.08 µM
same,GI50,[27],0.602 µM
same,TGI,[27],3 µM
same,GI50,[28],2.37 µM
same,TGI,[28],5.97 µM
same,GI50,[29],1.04 µM
same,TGI,[29],2.31 µM
same,GI50,[30],3.37 µM
same,TGI,[30],19 µM
same,GI50,[31],1.17 µM
same,TGI,[31],2.45 µM
same,GI50,[32],1.73 µM
same,TGI,[32],3.67 µM
same,GI50,[33],1.67 µM
same,TGI,[33],3.39 µM
same,GI50,[34],2.04 µM
same,TGI,[34],6.38 µM
same,GI50,[35],2.69 µM
same,TGI,[35],8.69 µM
same,GI50,[36],0.317 µM
same,TGI,[36],0.909 µM
same,GI50,[7],1.52 µM
same,TGI,[7],3 µM
same,GI50,[37],2.16 µM
same,TGI,[37],5.68 µM
same,GI50,[38],2.95 µM
same,TGI,[38],10.5 µM
same,GI50,[39],1.87 µM
same,TGI,[39],3.86 µM
same,GI50,[40],1.82 µM
same,TGI,[40],3.6 µM
same,GI50,[41],2.04 µM
same,TGI,[41],4.66 µM
same,GI50,[42],3.66 µM
same,TGI,[42],13.3 µM
same,GI50,[43],2 µM
same,TGI,[43],4.65 µM
same,GI50,[44],4.72 µM
same,TGI,[44],17.7 µM
same,GI50,[8],3.06 µM
same,TGI,[8],17.5 µM
same,GI50,[9],0.455 µM
same,TGI,[9],2.59 µM
same,GI50,[45],0.402 µM
same,TGI,[45],1.59 µM
same,GI50,[46],1.68 µM
same,TGI,[46],3.81 µM
same,GI50,[47],1.59 µM
same,TGI,[47],3.66 µM
same,GI50,[48],1.64 µM
same,TGI,[48],3.29 µM
same,GI50,[10],1.19 µM
same,TGI,[10],2.48 µM
